#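 Tested at 5 concentrations; 48 h exposure; 96-well plates; endpoints linearly interpolated, else capped at highest concentration. The concentration for full growth arrest is given as TGI.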
# Experiments:
# Experiment in all cases: NCI tumour cell line growth inhibition, 48 h
# SF-268 CNS = system: SF-268 CNS
# SN12C renal = system: SN12C renal
# TK-10 renal = system: TK-10 renal
# LOX IMVI melanoma = system: LOX IMVI melanoma
# UACC-62 melanoma = system: UACC-62 melanoma
# SK-MEL-2 melanoma = system: SK-MEL-2 melanoma
# SNB-78 CNS = system: SNB-78 CNS
# HCT-116 colon = system: HCT-116 colon
# UACC-257 melanoma = system: UACC-257 melanoma
# RXF 393 renal = system: RXF 393 renal
# DLD-1 colon = system: DLD-1 colon
# M14 melanoma = system: M14 melanoma
# ACHN renal = system: ACHN renal
# COLO 205 colon = system: COLO 205 colon
# OVCAR-3 ovarian = system: OVCAR-3 ovarian
# CAKI-1 renal = system: CAKI-1 renal
# OVCAR-4 ovarian = system: OVCAR-4 ovarian
# HT29 colon = system: HT29 colon
# M19-MEL melanoma = system: M19-MEL melanoma
# SNB-19 CNS = system: SNB-19 CNS
# A498 renal = system: A498 renal
# HOP-62 NSCLC = system: HOP-62 NSCLC
# U251 CNS = system: U251 CNS
# NCI-H226 lung = system: NCI-H226 lung
# SF-295 CNS = system: SF-295 CNS
# OVCAR-5 ovarian = system: OVCAR-5 ovarian
# SK-OV-3 ovarian = system: SK-OV-3 ovarian
# DMS 114 small cell lung = system: DMS 114 small cell lung
# SK-MEL-28 melanoma = system: SK-MEL-28 melanoma
# KM12 colon = system: KM12 colon
# HL-60(TB) leukemia = system: HL-60(TB) leukemia
# MALME-3M melanoma = system: MALME-3M melanoma
# NCI-H522 lung = system: NCI-H522 lung
# DMS 273 small cell lung = system: DMS 273 small cell lung
# KM20L2 colon = system: KM20L2 colon
# LXFL 529 NSCLC = system: LXFL 529 NSCLC
# SNB-75 CNS = system: SNB-75 CNS
# IGROV1 ovarian = system: IGROV1 ovarian
# SW-620 colon = system: SW-620 colon
# UO-31 renal = system: UO-31 renal
# SF-539 CNS = system: SF-539 CNS
# HOP-92 NSCLC = system: HOP-92 NSCLC
# NCI-H460 lung = system: NCI-H460 lung
# SR leukemia = system: SR leukemia
# MOLT-4 leukemia = system: MOLT-4 leukemia
# XF 498 CNS = system: XF 498 CNS
# EKVX NSCLC = system: EKVX NSCLC
# A549 NSCLC = system: A549 NSCLC
# K-562 leukemia = system: K-562 leukemia
# RXF-631 renal = system: RXF-631 renal
# NCI-H23 lung = system: NCI-H23 lung
# CCRF-CEM leukemia = system: CCRF-CEM leukemia
# SK-MEL-5 melanoma = system: SK-MEL-5 melanoma
# RPMI-8226 leukemia = system: RPMI-8226 leukemia
# HCC-2998 colon = system: HCC-2998 colon
# 786-0 renal = system: 786-0 renal
# OVCAR-8 ovarian = system: OVCAR-8 ovarian
# HOP-18 NSCLC = system: HOP-18 NSCLC
# HCT-15 colon = system: HCT-15 colon
smiles,measurement,setting,value
Cc1nc(-c2nc([N+](=O)[O-])c([N+](=O)[O-])[nH]2)cs1,TGI,SF-268 CNS,> 100 µM
same,TGI,SN12C renal,> 100 µM
same,TGI,TK-10 renal,> 100 µM
same,TGI,LOX IMVI melanoma,> 100 µM
same,TGI,UACC-62 melanoma,> 100 µM
same,TGI,SK-MEL-2 melanoma,> 100 µM
same,TGI,SNB-78 CNS,> 100 µM
same,TGI,HCT-116 colon,> 100 µM
same,TGI,UACC-257 melanoma,> 100 µM
same,TGI,RXF 393 renal,> 100 µM
same,TGI,DLD-1 colon,> 100 µM
same,TGI,M14 melanoma,> 100 µM
same,TGI,ACHN renal,> 100 µM
same,TGI,COLO 205 colon,> 100 µM
same,TGI,OVCAR-3 ovarian,> 100 µM
same,TGI,CAKI-1 renal,> 100 µM
same,TGI,OVCAR-4 ovarian,> 100 µM
same,TGI,HT29 colon,> 100 µM
same,TGI,M19-MEL melanoma,> 100 µM
same,TGI,SNB-19 CNS,> 100 µM
same,TGI,A498 renal,> 100 µM
same,TGI,HOP-62 NSCLC,> 100 µM
same,TGI,U251 CNS,> 100 µM
same,TGI,NCI-H226 lung,> 100 µM
same,TGI,SF-295 CNS,> 100 µM
same,TGI,OVCAR-5 ovarian,> 100 µM
same,TGI,SK-OV-3 ovarian,> 100 µM
same,TGI,DMS 114 small cell lung,> 100 µM
same,TGI,SK-MEL-28 melanoma,> 100 µM
same,TGI,KM12 colon,> 100 µM
same,TGI,HL-60(TB) leukemia,> 100 µM
same,TGI,MALME-3M melanoma,> 100 µM
same,TGI,NCI-H522 lung,> 100 µM
same,TGI,DMS 273 small cell lung,> 100 µM
same,TGI,KM20L2 colon,> 100 µM
same,TGI,LXFL 529 NSCLC,> 100 µM
same,TGI,SNB-75 CNS,> 100 µM
same,TGI,IGROV1 ovarian,> 100 µM
same,TGI,SW-620 colon,> 100 µM
same,TGI,UO-31 renal,> 100 µM
same,TGI,SF-539 CNS,> 100 µM
same,TGI,HOP-92 NSCLC,> 100 µM
same,TGI,NCI-H460 lung,> 100 µM
same,TGI,SR leukemia,> 100 µM
same,TGI,MOLT-4 leukemia,> 100 µM
same,TGI,XF 498 CNS,> 100 µM
same,TGI,EKVX NSCLC,> 100 µM
same,TGI,A549 NSCLC,> 100 µM
same,TGI,K-562 leukemia,> 100 µM
same,TGI,RXF-631 renal,> 100 µM
same,TGI,NCI-H23 lung,> 100 µM
same,TGI,CCRF-CEM leukemia,> 100 µM
same,TGI,SK-MEL-5 melanoma,> 100 µM
same,TGI,RPMI-8226 leukemia,> 100 µM
same,TGI,HCC-2998 colon,> 100 µM
COc1cc([C@H]2Oc3c(c(O)cc4oc(-c5ccccc5)cc(=O)c34)O[C@@H]2CO)ccc1O,TGI,SF-268 CNS,> 100 µM
same,TGI,SN12C renal,> 100 µM
same,TGI,786-0 renal,> 100 µM
same,TGI,UACC-62 melanoma,> 100 µM
same,TGI,SK-MEL-2 melanoma,57.6 µM
same,TGI,SNB-78 CNS,> 100 µM
same,TGI,HCT-116 colon,> 100 µM
same,TGI,DLD-1 colon,56.4 µM
same,TGI,M14 melanoma,38.5 µM
same,TGI,COLO 205 colon,> 100 µM
same,TGI,CAKI-1 renal,> 100 µM
same,TGI,OVCAR-4 ovarian,> 100 µM
same,TGI,M19-MEL melanoma,> 100 µM
same,TGI,A498 renal,> 100 µM
same,TGI,HOP-62 NSCLC,> 100 µM
same,TGI,NCI-H226 lung,> 100 µM
same,TGI,SK-OV-3 ovarian,> 100 µM
same,TGI,DMS 114 small cell lung,> 100 µM
same,TGI,SK-MEL-28 melanoma,> 100 µM
same,TGI,HL-60(TB) leukemia,36.2 µM
same,TGI,MALME-3M melanoma,83.4 µM
same,TGI,NCI-H522 lung,> 100 µM
same,TGI,DMS 273 small cell lung,25 µM
same,TGI,LXFL 529 NSCLC,> 100 µM
same,TGI,SNB-75 CNS,> 100 µM
same,TGI,IGROV1 ovarian,> 100 µM
same,TGI,UO-31 renal,> 100 µM
same,TGI,SF-539 CNS,> 100 µM
same,TGI,HOP-92 NSCLC,87.6 µM
same,TGI,NCI-H460 lung,32.5 µM
same,TGI,SR leukemia,36.7 µM
same,TGI,XF 498 CNS,> 100 µM
same,TGI,K-562 leukemia,> 100 µM
same,TGI,RXF-631 renal,62.7 µM
same,TGI,NCI-H23 lung,> 100 µM
same,TGI,CCRF-CEM leukemia,23.7 µM
same,TGI,HCC-2998 colon,> 100 µM
O=c1cccccc1NCCCCNc1cccccc1=O,TGI,SF-268 CNS,> 100 µM
same,TGI,SN12C renal,> 100 µM
same,TGI,TK-10 renal,> 100 µM
same,TGI,786-0 renal,> 100 µM
same,TGI,LOX IMVI melanoma,> 100 µM
same,TGI,UACC-62 melanoma,> 100 µM
same,TGI,SK-MEL-2 melanoma,> 100 µM
same,TGI,SNB-78 CNS,> 100 µM
same,TGI,HCT-116 colon,> 100 µM
same,TGI,UACC-257 melanoma,> 100 µM
same,TGI,DLD-1 colon,> 100 µM
same,TGI,M14 melanoma,> 100 µM
same,TGI,ACHN renal,> 100 µM
same,TGI,COLO 205 colon,> 100 µM
same,TGI,OVCAR-3 ovarian,> 100 µM
same,TGI,CAKI-1 renal,> 100 µM
same,TGI,OVCAR-4 ovarian,> 100 µM
same,TGI,HT29 colon,> 100 µM
same,TGI,M19-MEL melanoma,> 100 µM
same,TGI,SNB-19 CNS,> 100 µM
same,TGI,A498 renal,> 100 µM
same,TGI,HOP-62 NSCLC,> 100 µM
same,TGI,U251 CNS,> 100 µM
same,TGI,NCI-H226 lung,> 100 µM
same,TGI,OVCAR-8 ovarian,> 100 µM
same,TGI,SF-295 CNS,> 100 µM
same,TGI,OVCAR-5 ovarian,> 100 µM
same,TGI,SK-OV-3 ovarian,> 100 µM
same,TGI,DMS 114 small cell lung,> 100 µM
same,TGI,SK-MEL-28 melanoma,> 100 µM
same,TGI,KM12 colon,> 100 µM
same,TGI,HL-60(TB) leukemia,> 100 µM
same,TGI,MALME-3M melanoma,> 100 µM
same,TGI,NCI-H522 lung,> 100 µM
same,TGI,DMS 273 small cell lung,> 100 µM
same,TGI,KM20L2 colon,> 100 µM
same,TGI,LXFL 529 NSCLC,> 100 µM
same,TGI,SNB-75 CNS,> 100 µM
same,TGI,IGROV1 ovarian,> 100 µM
same,TGI,SW-620 colon,> 100 µM
same,TGI,UO-31 renal,> 100 µM
same,TGI,NCI-H460 lung,> 100 µM
same,TGI,HOP-18 NSCLC,> 100 µM
same,TGI,MOLT-4 leukemia,> 100 µM
same,TGI,EKVX NSCLC,> 100 µM
same,TGI,A549 NSCLC,> 100 µM
same,TGI,K-562 leukemia,> 100 µM
same,TGI,RXF-631 renal,> 100 µM
same,TGI,NCI-H23 lung,> 100 µM
same,TGI,CCRF-CEM leukemia,> 100 µM
same,TGI,SK-MEL-5 melanoma,96.8 µM
same,TGI,RPMI-8226 leukemia,> 100 µM
same,TGI,HCC-2998 colon,> 100 µM
same,TGI,HCT-15 colon,> 100 µM
COc1cccc(C2C(C(=O)Nc3cc(=O)n(C)c(=O)n3C)=C(C)NC(C)=C2C(=O)Nc2cc(=O)n(C)c(=O)n2C)c1O,TGI,SF-268 CNS,> 100 µM
same,TGI,SN12C renal,> 100 µM
same,TGI,TK-10 renal,> 100 µM
same,TGI,786-0 renal,> 100 µM
same,TGI,LOX IMVI melanoma,> 100 µM
same,TGI,SK-MEL-2 melanoma,> 100 µM
same,TGI,SNB-78 CNS,> 100 µM
same,TGI,UACC-257 melanoma,> 100 µM
same,TGI,RXF 393 renal,> 100 µM
same,TGI,DLD-1 colon,> 100 µM
same,TGI,M14 melanoma,> 100 µM
same,TGI,ACHN renal,> 100 µM
same,TGI,COLO 205 colon,> 100 µM
same,TGI,OVCAR-3 ovarian,> 100 µM
same,TGI,CAKI-1 renal,> 100 µM
same,TGI,OVCAR-4 ovarian,> 100 µM
same,TGI,HT29 colon,> 100 µM
same,TGI,M19-MEL melanoma,> 100 µM
same,TGI,SNB-19 CNS,> 100 µM
same,TGI,A498 renal,> 100 µM
same,TGI,HOP-62 NSCLC,> 100 µM
same,TGI,U251 CNS,> 100 µM
same,TGI,NCI-H226 lung,> 100 µM
same,TGI,OVCAR-8 ovarian,> 100 µM
same,TGI,SF-295 CNS,> 100 µM
same,TGI,OVCAR-5 ovarian,> 100 µM
same,TGI,SK-OV-3 ovarian,> 100 µM
same,TGI,DMS 114 small cell lung,> 100 µM
same,TGI,SK-MEL-28 melanoma,> 100 µM
same,TGI,KM12 colon,> 100 µM
same,TGI,HL-60(TB) leukemia,> 100 µM
same,TGI,MALME-3M melanoma,> 100 µM
same,TGI,NCI-H522 lung,> 100 µM
same,TGI,KM20L2 colon,> 100 µM
same,TGI,LXFL 529 NSCLC,> 100 µM
same,TGI,SNB-75 CNS,> 100 µM
same,TGI,IGROV1 ovarian,> 100 µM
same,TGI,SW-620 colon,> 100 µM
same,TGI,UO-31 renal,> 100 µM
same,TGI,SF-539 CNS,> 100 µM
same,TGI,HOP-92 NSCLC,> 100 µM
same,TGI,NCI-H460 lung,> 100 µM
same,TGI,MOLT-4 leukemia,> 100 µM
same,TGI,XF 498 CNS,> 100 µM
same,TGI,EKVX NSCLC,> 100 µM
same,TGI,A549 NSCLC,> 100 µM
same,TGI,K-562 leukemia,> 100 µM
same,TGI,RXF-631 renal,> 100 µM
same,TGI,NCI-H23 lung,> 100 µM
same,TGI,CCRF-CEM leukemia,> 100 µM
same,TGI,SK-MEL-5 melanoma,> 100 µM
same,TGI,RPMI-8226 leukemia,> 100 µM
same,TGI,HCC-2998 colon,> 100 µM
